The subject of the data set is STAM mice. In words: NASH-HCC (STAM) model: body weight, liver weight, macroscopic liver appearance. It counts as in vivo. The settings on record: for Liver Weight / Liver-to-body Weight Ratio: 5-9 wks. The procedure:
NASH-HCC (STAM™) Model. C57BL/6 (15-day-pregnant female) mice are obtained from Charles River Laboratories Japan (Kanagawa, Japan). Male pups are selected for the study. NASH is induced in male mice by a single subcutaneous injection of 200 μg streptozotocin (STZ, Sigma-Aldrich, USA) solution 2 days after birth, followed by feeding a HFD (57 kcal % fat, cat#: HFD32, CLEA Japan, Japan) beginning at 4 weeks of age. At 5 weeks of age, mice are divided into a control group and one or more treated group (generally 8 mice per group). Animals are sacrificed at 9 weeks of age, and biochemical, histological, and gene expression analyses are performed.
All animals used in the study are housed and cared for in accordance with local regulations. Test animals are maintained in an SPF facility under controlled conditions of temperature (23±2° C.), humidity (45±10%), lighting (12-hour artificial light and dark cycles; light from 8:00 to 20:00) and air exchange. A high pressure (20±4 Pa) is maintained in the experimental room. Test animals are housed in polycarbonate cages KN-600 (Natsume Seisakusho, Japan) with a maximum of 4 mice per cage. Sterilized PULMASμ (Material Research Center, Japan) are used for bedding and replaced once a week. Sterilized solid HFD is provided ad libitum, being placed in the metal lid on top of the cage. Pure water is provided ad libitum from a water bottle equipped with a rubber stopper and a sipper tube. Water bottles are replaced once a week, cleaned and sterilized in autoclave and reused.
Generally, elevated NAFLD activity score (NAS)≧5, steatosis, and elevated ALT is evident by week 6, NASH is evident by week 7, perisinusoidal fibrosis is evident by week 9, nodules are evident by week 12, and HCC is evident by week 16. It is to be understood herein that perisinusoidal fibrosis in mice is the model for NASH in humans (Fujii et al., Med Mol Morphol 46: 141-152 (2013)).
During weeks 5-9 (starting at day 35±2), test compound is administered (generally orally) at various doses diluted to 10 mL/kg and according to various dosing protocols to treatment groups (8 mice each) while a second group (8 mice) is administered vehicle only. Animals are sacrificed at 9 weeks.
Illustrative dose response test groups. Group 1-Normal. Eight normal mice are fed with a normal diet ad libitum without any treatment until 9 weeks of age. Group 2-Vehicle. Eight NASH mice are orally administered vehicle (0.5% w/v methylcellulose+0.2% Tween®80) in a volume of 10 mL/kg twice daily from 5 to 9 week of age. Group 3-solithromycin 5 mg/kg. Eight NASH mice are orally administered vehicle supplemented with solithromycin at a dose of 5 mg/kg in the morning and the vehicle in the evening (5 mg/kg/day) from 5 to 9 weeks of age. Group 4-solithromycin 10 mg/kg. Eight NASH mice are orally administered vehicle supplemented with solithromycin at a dose of 10 mg/kg twice daily (20 mg/kg/day) from 5 to 9 weeks of age. Group 5-solithromycin 25 mg/kg. Eight NASH mice are orally administered vehicle supplemented with solithromycin at a dose of 25 mg/kg twice daily (50 mg/kg/day) from 5 to 9 weeks of age. Group 6-solithromycin 50 mg/kg. Eight NASH mice are orally administered vehicle supplemented with solithromycin at a dose of 50 mg/kg once daily (50 mg/kg/day) from 5 to 9 weeks of age.

Setting [1] is: 5 mg/kg q.d. oral, listed as Solithromycin, 5 mg/kg.
The mark [2] stands for this setting: 10 mg/kg b.i.d. oral, listed as Solithromycin, 10 mg/kg.
Where [3] appears, read: 25 mg/kg b.i.d. oral, listed as Solithromycin, 25 mg/kg.

For the compound `CC[C@H]1OC(=O)[C@@](C)(F)C(=O)[C@H](C)[C@@H](O[C@@H]2O[C@H](C)C[C@H](N(C)C)[C@H]2O)[C@](C)(OC)C[C@@H](C)C(=O)[C@H](C)[C@H]2N(CCCCn3cc(-c4cccc(N)c4)nn3)C(=O)O[C@]12C` [solithromycin], the “Liver Weight” value (5 mg/kg q.d. oral, 5 mg/kg) is “no statistically significant difference”; the “Liver Weight” value under setting [1] was 1335 ± 185 mg; the “Liver Weight” value (10 mg/kg b.i.d. oral, 10 mg/kg) is listed as “significant reductions”; the “Liver Weight” value under setting [2] turned out to be 1187 ± 134 mg; the “Liver Weight” value (25 mg/kg b.i.d. oral, 25 mg/kg) is recorded as “significant reductions”; the “Liver Weight” value under setting [3] amounted to 1087 ± 97 mg. Also, the “Liver Weight” value (50 mg/kg q.d. oral) turned out to be 1242 ± 141 mg. The “Liver-to-body Weight Ratio” value is given as “no statistically significant differences” (5 mg/kg q.d. oral, 5 mg/kg); 7.0 ± 0.8% under setting [1]; “no statistically significant differences” (10 mg/kg b.i.d. oral, 10 mg/kg); 6.7 ± 0.8% under setting [2]; “significant decrease” (25 mg/kg b.i.d. oral, 25 mg/kg); 5.9 ± 0.7 % under setting [3]. Also, the “Liver-to-body Weight Ratio” value (50 mg/kg q.d. oral) is listed as 6.0 ± 0.7 %. In addition, the “Mean body weight on the day of sacrifice compared to vehicle group” value reads like this: (Group 4 (10 mg/kg b.i.d.)) “significant decrease”; (Groups 3, 5, 6) “no significant differences”. Moreover, the “Macroscopic liver appearance (coloration)” value (as a function of increasing dose) was “substantially less yellow in color”.

These data come from patent US20170165286A1, “COMPOSITIONS AND METHODS FOR TREATING DIABETES AND LIVER DISEASES” (Cempra Pharmaceuticals, Inc., priority 2014, published 2017).
